Results published in US8883771B2, “Bivalent inhibitors of IAP proteins and therapeutic methods using the same” (The Regents of the University of Michigan, priority 2012, dated 2014).

Experiments:
MDA-MB-231 xenograft = assay: Antitumor activity in the MDA-MB-231 xenograft model in nude mice; type: in vivo; settings: 3 mg/kg, weekly dose for 4 weeks (qwk×4, iv), start at average tumor volume 80 mm^3
Experimental: Treatments started when the tumors reached an average volume of 80 mm^3 Example 24 was given intravenously, weekly dose for 4 weeks (qwk×4, iv) at 10 mg/kg. Example 2 was given weekly dose for 4 weeks (qwk×4, iv) at 3 mg/kg. Control treatment was given vehicle control. Each group has 8-10 mice and each mouse has one tumor.

[1] = tested on: MDA-MB-231 breast cancer cell line; assay: Inhibition of cell growth in MDA-MB-231 breast cancer cell line; type: cell-based, human; settings: Homo sapiens, MDA-MB-231, MDA-MB-231 breast cancer cell line
[2] = molecular target: cIAP1-BIR3 (residues 253-363) (Homo sapiens (Human), UniProt Q13490); assay: Fluorescence polarization (FP) based competitive binding assay, cIAP1-BIR3; settings: Smac-2F probe, read-out: Binding Affinities IC50 (nM) cIAP1 Protein
Experimental: (§1) For cIAP-1 BIR3 and cIAP-2 BIR3 assays, a fluorescently labeled Smac mimetic (Smac-2F) was used as the fluorescent probe. The Kd values of Smac-2F to cIAP-1 BIR3 and cIAP-2 BIR3 were determined by monitoring the total fluorescence polarization of mixtures composed with the fluorescent probe at a fixed concentration and proteins with increasing concentrations up to full saturation. Fluorescence polarization values were measured using the Infinite M-1000 plate reader (Tecan U.S., Research Triangle Park, N.C.) in Microfluor 2 96-well, black, round-bottom plates (Thermo Scientific). To each well, 1 nM of SMAC-2F and increasing concentrations of protein were added to a final volume of 125 μl in the assay buffer (100 mM potassium phosphate, pH 7.5, 100 μg/ml bovine γ-globulin, 0.02% sodium azide, Invitrogen, with 4% DMSO). Plates were incubated at room temperature for 1-2 hours and mixed with gentle shaking to assure equilibrium. […] Equilibrium dissociation constants (Kd) were then calculated by fitting the sigmoidal dose-dependent FP increases as a function of protein concentrations using Graphpad Prism 5.0 software (Graphpad Software, San Diego, Calif.).
(§2) Mixtures of 5 μl of the tested compounds in DMSO and 120 μl of preincubated protein/tracer complex in the assay buffer (100 mM potassium phosphate, pH 7.5, 100 μg/ml bovine γ-globulin, 0.02% sodium azide, Invitrogen) were added into assay plates and incubated at room temperature for 2 hours with gentle shaking. Final concentrations of proteins and probes were 3 nM and 1 nM, 5 nM and 1 nM for assays for cIAP-1 BIR3 and cIAP-2 BIR3, respectively. […] FP values were measured as described above. IC50 values were determined by nonlinear regression fitting of the competition curves. The Ki values of competitive inhibitors were calculated using the derived equation described previously, based upon the measured IC50 values, the Kd values of the probe to different proteins, and the concentrations of the proteins and probes in the competitive assays.

[3] = tested on: SK-OV-3 ovarian cancer cell line; assay: Inhibition of cell growth in SK-OV-3 ovarian cancer cell line; type: cell-based, human; settings: Homo sapiens, SK-OV-3, SK-OV-3 ovarian cancer cell line
[4] = molecular target: XIAP linker-BIR2-BIR3 (residues 120-356) (Homo sapiens (Human), UniProt P98170); assay: Fluorescence polarization (FP) based competitive binding assay, XIAP linker-BIR2-BIR3; settings: FP competitive assay, Smac-1F probe; read-out: Binding Affinities IC50 (nM) XIAP Protein
Experimental: as §1, §2
The FP-based assay for XIAP linker-BIR2-BIR3 protein was performed with the same procedures. In this assay, a bivalent fluorescently tagged peptidic Smac mimetic (Smac-1F) was used as the fluorescent probe whose Kd value to XIAP linker-BIR2-BIR3 was determined similarly through the saturation experiments. 0.01% of Triton X-100 was added in the assay buffer to achieve stable fluorescence and polarization value of the dimeric fluorescent probe. Final protein and probe concentrations utilized in the competitive assay were 3 nM and 1 nM, respectively.

[5] = molecular target: cIAP-2 BIR3 (residues 238-349) (Homo sapiens (Human), UniProt Q13489); assay: Fluorescence polarization (FP) based competitive binding assay, cIAP-2 BIR3; settings: FP competitive assay, Smac-2F probe; read-out: Binding Affinities IC50 (nM) cIAP2 Protein
Experimental: as §1, §2

Compound: CN[C@@H](C)C(=O)N[C@H]1CN(C(=O)Nc2ccc(NC(=O)N3CC[C@H]4CC[C@@H](C(=O)NC(c5ccccc5)c5ccccc5)N4C(=O)[C@@H](NC(=O)[C@H](C)NC)C3)cc2)CC[C@H]2CCC(C(=O)NC(c3ccccc3)c3ccccc3)N2C1=O (stereo partly drawn) [Example 2]
- Antitumor activity (mean tumor volume) (MDA-MB-231 xenograft): Tumor regression was achieved

Compound: CN[C@@H](C)C(=O)N[C@H]1CN(C(=O)Nc2ccc(NC(=O)N3CC[C@H]4CC[C@@H](C(=O)N[C@@H]5CCC[C@@H]5c5ccccc5)N4C(=O)[C@@H](NC(=O)[C@H](C)NC)C3)cc2)CC[C@H]2CC[C@@H](C(=O)N[C@@H]3CCC[C@@H]3c3ccccc3)N2C1=O [Example 34]
- IC50 [1]: < 100 nM
- IC50 [2]: < 1000 nM
- IC50 [3]: < 100 nM
- IC50 [4]: < 1000 nM
- IC50 [5]: < 1000 nM
